Patent US20170190671A1, “BIS(ARYL)CATECHOL DERIVATIVES AS HERBICIDES” (E I DU PONT DE NEMOURS AND COMPANY, priority 2014, published 2017)

Tests used:
Experiment in all cases: Test C postemergence
Format in all cases: in vivo
wild oat (Avena fatua) = details: Avena fatua, post-emergence, Postemergence, scale 0 to 100, read-out: Plant response rating, Oat, Wild
How it was run: (§1)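 Visual ratings (0 none to 100 complete control) were made 13 to 15 days after treatment, relative to controls. Test chemicals, formulated in a non-phytotoxic solvent mixture with surfactant, were applied in the greenhouse preemergence to seeded loam-sand soil or postemergence to plants 2 to 18 cm tall.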

[1] = tested on: johnsongrass (Sorghum halepense); details: Sorghum halepense, post-emergence, 336 h, Postemergence, scale 0 to 100, read-out: Plant response rating, Johnsongrass
How it was run: as §1

[2] = tested on: Italian ryegrass (Lolium multiflorum); details: Lolium multiflorum, post-emergence, 336 h, Postemergence, scale 0 to 100, read-out: Plant response rating, Ryegrass, Italian
How it was run: as §1

[3] = tested on: winter wheat (Triticum aestivum); details: Triticum aestivum, post-emergence, 336 h, Postemergence, scale 0 to 100, read-out: Plant response rating, Wheat
How it was run: as §1

[4] = tested on: barnyardgrass (Echinochloa crus-galli); details: Echinochloa crus-galli, post-emergence, Postemergence, scale 0 to 100, read-out: Plant response rating, Barnyardgrass
How it was run: as §1

[5] = tested on: giant foxtail (Setaria faberii); details: Setaria faberi, post-emergence, 336 h, Postemergence, scale 0 to 100, read-out: Plant response rating, Foxtail, Giant
How it was run: as §1

[6] = tested on: lambsquarters (Chenopodium album); details: Chenopodium album, post-emergence, 336 h, Postemergence, scale 0 to 100, read-out: Plant response rating, Lambsquarters
How it was run: as §1

[7] = tested on: chickweed (common chickweed, Stellaria media); details: Stellaria media, post-emergence, Postemergence, scale 0 to 100, read-out: Plant response rating, Chickweed
How it was run: as §1

kochia (Kochia scoparia) = details: Bassia scoparia, post-emergence, Postemergence, scale 0 to 100, read-out: Plant response rating, Kochia
How it was run: as §1

soybean (Glycine max) = details: Glycine max, post-emergence, Postemergence, scale 0 to 100, read-out: Plant response rating, Soybean
How it was run: as §1

[8] = tested on: large (Lg) crabgrass (Digitaria sanguinalis); details: Digitaria sanguinalis, post-emergence, 336 h, Postemergence, scale 0 to 100, read-out: Plant response rating, Crabgrass, Large
How it was run: as §1

[9] = tested on: galium (catchweed bedstraw, Galium aparine); details: Galium, post-emergence, 336 h, Postemergence, scale 0 to 100, read-out: Plant response rating, Galium
How it was run: as §1

[10] = tested on: oilseed rape (Brassica napus); details: Brassica napus, post-emergence, Postemergence, scale 0 to 100, read-out: Plant response rating, Oilseed Rape
How it was run: as §1

[11] = tested on: blackgrass (Alopecurus myosuroides); details: Alopecurus myosuroides, post-emergence, 336 h, Postemergence, scale 0 to 100, read-out: Plant response rating, Blackgrass
How it was run: as §1

[12] = tested on: velvetleaf (Abutilon theophrasti); details: Abutilon theophrasti, post-emergence, Postemergence, scale 0 to 100, read-out: Plant response rating, Velvetleaf
How it was run: as §1

corn (Zea mays) = details: Zea mays, post-emergence, 336 h, Postemergence, scale 0 to 100
How it was run: as §1

[13] = tested on: morningglory (Ipomoea coccinea); details: Ipomoea, post-emergence, 336 h, Postemergence, scale 0 to 100, read-out: Plant response rating, Morningglory
How it was run: as §1

[14] = tested on: yellow nutsedge (Cyperus esculentus); details: Cyperus, post-emergence, 336 h, Postemergence, scale 0 to 100, read-out: Plant response rating, Nutsedge, Yellow
How it was run: as §1

[15] = tested on: ragweed (common ragweed, Ambrosia elatior); details: Ambrosia artemisiifolia, post-emergence, 336 h, Postemergence, scale 0 to 100, read-out: Plant response rating, Ragweed
How it was run: as §1

Fc1cccc(Oc2ncc(Cl)cn2)c1Oc1ccc(Cl)nc1 [Compound 20]
60%: pest or weed control at 62 g/ha ([13]; 62 g ai/ha) | pest or weed control at 250 g/ha ([15]; 250 g ai/ha)
45%: pest or weed control at 125 g/ha ([7]; 125 g ai/ha) | pest or weed control at 125 g/ha ([15]; 125 g ai/ha)
95%: pest or weed control at 250 g/ha ([9]; 250 g ai/ha)
15%: pest or weed control at 250 g/ha ([2]; 250 g ai/ha) | pest or weed control at 31 g/ha ([5]; 31 g ai/ha) | pest or weed control at 125 g/ha ([5]; 125 g ai/ha) | pest or weed control at 250 g/ha ([5]; 250 g ai/ha) | plant injury at 31 g/ha ([10]; 31 g ai/ha) | pest or weed control at 250 g/ha ([11]; 250 g ai/ha) | Corn plant response rating (crop injury, 0 = no effect, 100 = complete kill) at 62 g/ha (corn (Zea mays); 62 g ai/ha) | Corn plant response rating (crop injury, 0 = no effect, 100 = complete kill) at 250 g/ha (corn (Zea mays); 250 g ai/ha)
70%: plant injury at 62 g/ha (soybean (Glycine max); 62 g ai/ha) | pest or weed control at 125 g/ha ([9]; 125 g ai/ha) | plant injury at 62 g/ha ([10]; 62 g ai/ha) | plant injury at 250 g/ha ([10]; 250 g ai/ha)
50%: pest or weed control at 31 g/ha ([9]; 31 g ai/ha) | pest or weed control at 62 g/ha ([9]; 62 g ai/ha)
10%: pest or weed control at 62 g/ha (wild oat (Avena fatua); 62 g ai/ha) | pest or weed control at 125 g/ha (wild oat (Avena fatua); 125 g ai/ha) | pest or weed control at 250 g/ha (wild oat (Avena fatua); 250 g ai/ha) | pest or weed control at 125 g/ha ([2]; 125 g ai/ha) | pest or weed control at 125 g/ha ([4]; 125 g ai/ha) | pest or weed control at 250 g/ha ([4]; 250 g ai/ha) | pest or weed control at 125 g/ha ([8]; 125 g ai/ha) | pest or weed control at 62 g/ha ([11]; 62 g ai/ha) | pest or weed control at 125 g/ha ([14]; 125 g ai/ha) | pest or weed control at 250 g/ha ([14]; 250 g ai/ha)
75%: pest or weed control at 62 g/ha ([6]; 62 g ai/ha) | pest or weed control at 125 g/ha ([6]; 125 g ai/ha)
80%: pest or weed control at 250 g/ha ([6]; 250 g ai/ha) | pest or weed control at 250 g/ha ([7]; 250 g ai/ha) | pest or weed control at 31 g/ha (kochia (Kochia scoparia); 31 g ai/ha) | plant injury at 125 g/ha ([10]; 125 g ai/ha)
5%: pest or weed control at 31 g/ha (wild oat (Avena fatua); 31 g ai/ha) | pest or weed control at 31 g/ha ([1]; 31 g ai/ha) | pest or weed control at 62 g/ha ([1]; 62 g ai/ha) | pest or weed control at 125 g/ha ([1]; 125 g ai/ha) | pest or weed control at 250 g/ha ([1]; 250 g ai/ha) | pest or weed control at 31 g/ha ([2]; 31 g ai/ha) | pest or weed control at 62 g/ha ([2]; 62 g ai/ha) | plant injury at 125 g/ha ([3]; 125 g ai/ha) | plant injury at 250 g/ha ([3]; 250 g ai/ha) | pest or weed control at 31 g/ha ([4]; 31 g ai/ha) | pest or weed control at 62 g/ha ([4]; 62 g ai/ha) | pest or weed control at 31 g/ha ([8]; 31 g ai/ha) | pest or weed control at 62 g/ha ([8]; 62 g ai/ha) | pest or weed control at 31 g/ha ([11]; 31 g ai/ha) | pest or weed control at 125 g/ha ([11]; 125 g ai/ha) | Corn plant response rating (crop injury, 0 = no effect, 100 = complete kill) at 31 g/ha (corn (Zea mays); 31 g ai/ha) | pest or weed control at 62 g/ha ([14]; 62 g ai/ha)
65%: plant injury at 125 g/ha (soybean (Glycine max); 125 g ai/ha) | plant injury at 250 g/ha (soybean (Glycine max); 250 g ai/ha) | pest or weed control at 125 g/ha ([13]; 125 g ai/ha) | pest or weed control at 250 g/ha ([13]; 250 g ai/ha)
85%: pest or weed control at 31 g/ha ([6]; 31 g ai/ha)
55%: pest or weed control at 250 g/ha ([12]; 250 g ai/ha)
20%: pest or weed control at 62 g/ha ([5]; 62 g ai/ha) | pest or weed control at 250 g/ha ([8]; 250 g ai/ha) | Corn plant response rating (crop injury, 0 = no effect, 100 = complete kill) at 125 g/ha (corn (Zea mays); 125 g ai/ha) | pest or weed control at 31 g/ha ([15]; 31 g ai/ha) | pest or weed control at 62 g/ha ([15]; 62 g ai/ha)
30%: pest or weed control at 62 g/ha ([12]; 62 g ai/ha) | pest or weed control at 31 g/ha ([13]; 31 g ai/ha)
35%: pest or weed control at 31 g/ha ([7]; 31 g ai/ha) | pest or weed control at 31 g/ha ([12]; 31 g ai/ha) | pest or weed control at 125 g/ha ([12]; 125 g ai/ha)
40%: pest or weed control at 62 g/ha ([7]; 62 g ai/ha)
0%: plant injury at 31 g/ha ([3]; 31 g ai/ha) | plant injury at 62 g/ha ([3]; 62 g ai/ha) | pest or weed control at 31 g/ha ([14]; 31 g ai/ha)
90%: pest or weed control at 62 g/ha (kochia (Kochia scoparia); 62 g ai/ha) | pest or weed control at 125 g/ha (kochia (Kochia scoparia); 125 g ai/ha)
25%: plant injury at 31 g/ha (soybean (Glycine max); 31 g ai/ha)
98%: pest or weed control at 250 g/ha (kochia (Kochia scoparia); 250 g ai/ha)
